Publication PMC4102965 (ACS Chemical Neuroscience, 2014)
Where two headings read alike, the source gives them in different places. Marks after values point to notes of the source that are not given here.

Columns and labels:
[1] = dog; cited from earlier work
[2] = test system: SNL mice; assay: Anti-allodynia test in SNL; conditions: 30 mg/kg oral gavage
[3] = test system: PSL rats; assay: Anti-allodynia test in PSL; type: in vivo; conditions: 30 mg/kg oral
[4] = test system: neuromuscular coordination in rats; assay: Rotarod test; conditions: for duration (s) 1 h / duration (s) 2 h / duration (s) 3 h: mean (SEM), max 180 s
[5] = test system: SNL rats; conditions: previously reported; cited from earlier work
[6] = human; cited from earlier work
[7] = biological target: gabapentin-binding site (presumably α2-δ subunit proteins) (Rattus norvegicus, UniProt P54290); assay: [3H]gabapentin-binding assay, rat cerebral cortex membranes
[8] = Pharmacokinetics after single oral dosing, plasma and brain by LC-MS/MS; type: in vivo, rats; conditions: male, SD, rat, 30 mg/kg

Chain of gabapentin-binding site (presumably α2-δ subunit proteins) (P54290 25-1091): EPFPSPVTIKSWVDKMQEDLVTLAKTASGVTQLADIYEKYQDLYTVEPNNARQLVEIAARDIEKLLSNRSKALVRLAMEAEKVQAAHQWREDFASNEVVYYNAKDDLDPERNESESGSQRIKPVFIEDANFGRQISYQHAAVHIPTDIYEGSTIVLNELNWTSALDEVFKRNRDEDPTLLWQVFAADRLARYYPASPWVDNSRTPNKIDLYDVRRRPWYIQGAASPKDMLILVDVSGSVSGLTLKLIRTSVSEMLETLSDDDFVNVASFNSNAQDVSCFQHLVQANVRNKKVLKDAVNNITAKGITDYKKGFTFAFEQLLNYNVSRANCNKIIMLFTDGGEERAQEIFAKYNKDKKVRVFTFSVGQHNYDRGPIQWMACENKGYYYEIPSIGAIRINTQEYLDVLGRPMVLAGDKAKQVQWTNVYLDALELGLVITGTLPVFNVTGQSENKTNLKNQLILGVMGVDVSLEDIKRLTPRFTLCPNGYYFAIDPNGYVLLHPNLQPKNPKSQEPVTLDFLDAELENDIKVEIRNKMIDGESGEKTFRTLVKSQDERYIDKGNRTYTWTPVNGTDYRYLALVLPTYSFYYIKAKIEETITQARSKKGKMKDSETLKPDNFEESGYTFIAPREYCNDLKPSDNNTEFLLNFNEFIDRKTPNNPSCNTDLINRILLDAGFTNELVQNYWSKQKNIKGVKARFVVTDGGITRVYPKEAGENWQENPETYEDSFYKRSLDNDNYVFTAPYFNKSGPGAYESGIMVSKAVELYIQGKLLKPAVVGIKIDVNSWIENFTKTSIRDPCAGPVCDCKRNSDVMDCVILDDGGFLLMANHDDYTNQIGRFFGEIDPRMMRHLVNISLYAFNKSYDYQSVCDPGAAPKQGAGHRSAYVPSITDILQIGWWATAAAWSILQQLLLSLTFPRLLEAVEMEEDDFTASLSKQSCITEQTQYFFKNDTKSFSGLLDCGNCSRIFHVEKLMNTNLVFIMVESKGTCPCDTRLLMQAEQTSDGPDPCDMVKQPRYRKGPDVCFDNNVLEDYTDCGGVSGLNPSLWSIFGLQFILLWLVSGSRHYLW

For `CC(C)CC(CN)CC(=O)O` (centres unmarked) [pregabalin, 3-isobutyl-γ-aminobutyric acid], the “plasma half-life (T1/2)” value [1] is given as “around 6 h”, the “antiallodynic activity (pain thresholds, paw withdrawal to von Frey filaments)” value ([2]; SNL mice) is given as “significant antiallodynic activity” and the “pain thresholds in sham mice (hypalgesic effect)” value ([2]; sham mice) is given as “significantly increased the pain thresholds in sham mice at the late time point of 180 min”. For the same compound, the analgesic effects ([3]; PSL (Seltzer) rats) was “significant analgesic effects”, the “time at which efficacy on the ipsilateral side peaked” value ([3]; PSL rats) was 180 min and the “time up to which efficacy on the ipsilateral side was sustained” value ([3]; PSL rats) was 300 min. The “hypalgesic effect on the contralateral side” value ([3]; PSL rats, 180 min after administration) was “remarkable hypalgesic effect”, the “duration (s) 1 h” value ([4]; 10 mg/kg oral) was 180 (0.0) s and the “duration (s) 2 h” value ([4]; 10 mg/kg oral) was 160 (19.8) s. The “duration (s) 3 h” value ([4]; 10 mg/kg oral, 10 mg/kg) was “significantly shortened”, the “duration (s) 1 h” value ([4]; 30 mg/kg oral) was 180 (0.0) s and the “duration (s) 2 h” value ([4]; 30 mg/kg oral) was 93 (24.4)^## s. The “duration (s) 3 h” value ([4]; 30 mg/kg oral) was 12 (3.7)^## s, the “duration (s) 1 h” value ([4]; 100 mg/kg oral) was 53 (11.5)^# s and the “duration (s) 2 h” value ([4]; 100 mg/kg oral) was 13 (6.3)^## s. For the same compound, the “duration (s) 3 h” value ([4]; 100 mg/kg oral) was 6 (2.1)^## s, the “effect on neuromuscular coordination (duration on the rotating rods)” value ([4]; oral, over the doses tested) was “significantly and dose-dependently reduced the duration” and the “effect on pain thresholds on both sides of SNL rats” value [5] was “bilateral hypalgesic activity”. For the same compound, the “plasma half-life (T1/2)” value [6] was “around 6 h”, the “RBA (%)” value ([7]; IC50 of pregabalin divided by IC50 of test compound) was 100% and the inhibition at 0.39 µM ([7]; read-out: % inhibition (at μM)) was 79%. For the same compound, the concentration at 1 h ([8]; brain) was 12.4 µM and the concentration at 1 h ([8]; plasma) was 109 µM.
